In PubChem BioAssay AID1963856 (Molecular Pharmacology Branch, DTP, NCI, 2024):
pIC50: −log10 of the molar value.

Tested on: LG0567-F671-PDC KRAS tumor spheroid viability
Experiment: Anticancer human tumor LG0567-F671-PDC patient-derived lung adenocarcinoma cell line growth inhibition [KRAS2]
Conditions: spheroids with HUVEC and MSC; for pIC50: curve of first compound; for viability, T/C: stronger effect = lower value
Text: Multicellular complex tumor spheroid response to RAS pathway inhibitors in combination with a targeted agents in patient-derived cell lines with oncogenic KRAS variants from multiple cancer types
A high-throughput screen of multi-cell type tumor spheroids was designed to identify active combinations of targeted small molecules and KRAS pathway inhibitors. Complex spheroids include a stromal component modeled by human endothelial cells (HUVEC) and fibroblasts modeled by human mesenchymal stem cells (MSCs). The concentration ranges selected for each drug and investigational agent were based upon clinically achievable concentrations if the clinical Cmax of the agent was known.
Compounds. The drugs and investigational agents: BI-3406 (NSC825286), BAY-293 (NSC824723), batoprotafib (TNO155; NSC825523), sotorasib (AMG 510; NSC818433), MRTX1257 (NSC819558), elimusertib (BAY 1895344; NSC800525), molibresib (GSK525762; NSC774829), temuterkib (LY3214996; NSC803410), venetoclax (NSC766270), alisertib (NSC759677), olaparib (NSC753686), talazoparib (NSC767125), erdafitinib (NSC781556), ipatasertib (NSC767898), cabozantinib (NSC761068), nintedanib (NSC756659), abemaciclib (NSC768073), docetaxel (NSC628503), trametinib (NSC758246), and sapanisertib (NSC764658) were obtained from the National Cancer Institute (NCI) Developmental Therapeutics Program Chemical Repository. The FDA-approved anticancer drug set is available from the Developmental Therapeutics Program. […] The stock solutions were prepared in dimethyl sulfoxide (DMSO, Sigma-Aldrich, St. Louis, MO, cat. D2650) at 800-fold the tested concentration and stored at -70 degrees C prior to their use. All drugs and investigational agents were tested over a range starting from a high concentration at or near the clinical Cmax and decreasing in half-log increments. If the clinical Cmax for an agent had not been determined, the highest concentration tested was 10 microM.
Cell Culture. All cells were maintained in an incubator at 37 degrees C and 5% CO2 with 95% humidity. The PDC lines were cultured according to standard operating procedures established by the NCI PDMR (https://pdmr.cancer.gov/sops/default.htm). Briefly, all PDCs were thawed and cultured in Matrigel-coated flasks prepared with a working solution of 1X Ham's F-12 nutrient mix, without supplementation (Invitrogen, Waltham, MA, cat. 11765054), 100 U/mL penicillin-streptomycin (Invitrogen, cat. 15140122), and 2.5% Matrigel (Corning Inc., Corning, NY, cat. 354248) for the first three passages. All PDCs were cultured in complete DMEM/F-12 media containing advanced DMEM/F-12 (Invitrogen, cat. 12634028), 4.9% defined fetal bovine serum, heat inactivated (HyClone Laboratories Inc., Logan, UT, cat. SH30070.03HI), 389 ng/mL hydrocortisone (Sigma-Aldrich, cat. H4001), 9.7 ng/mL human EGF recombinant protein (Invitrogen, cat. PHG0313), 23.4 microg/mL adenine (Sigma-Aldrich, cat. A2786), 97.3 U/mL penicillin-streptomycin (Invitrogen, cat. 15140122), 1.9 mM L-glutamine (Invitrogen, cat. 25030081), and 9.7 microM Y-27632 dihydrochloride (Tocris Bioscience, Bristol, United Kingdom, cat. 1254). The PDCs were cultured in complete DMEM/F12 media without 9.7 microM Y-27632 dihydrochloride for at least two passages prior to the screen. The established cell line HOP-62 was cultured in RPMI 1640 medium, HEPES (Invitrogen, cat. 22400105) with 10% defined fetal bovine serum (HyClone Laboratories Inc., cat. SH30070.03) and 2 mM L-glutamine (Invitrogen, cat. 25030081). The pooled donor HUVEC were cultured in endothelial cell growth medium 2 (PromoCell, Heidelberg, Germany, cat. C-22011) and the hMSC were cultured in mesenchymal stem cell growth medium 2 (PromoCell, cat. C-28009). For all experiments, HUVEC and hMSC were used at passages </=5, while the malignant cell lines were used at passages </=15. […]

[1] = second compound 0.1 µM, first compound 0.0316 µM
[2] = second compound 0.1 µM, first compound 0.1 µM
[3] = second compound 0.1 µM, first compound 0.316 µM
[4] = second compound 0.1 µM, first compound 1 µM
[5] = second compound 0.1 µM, first compound 3.16 µM
[6] = second compound 0.1 µM, first compound 10 µM
[7] = second compound 0.316 µM, first compound 0.0316 µM
[8] = second compound 0.316 µM, first compound 0.1 µM
[9] = second compound 0.316 µM, first compound 0.316 µM
[10] = second compound 0.316 µM, first compound 1 µM
[11] = second compound 0.316 µM, first compound 3.16 µM
[12] = second compound 0.316 µM, first compound 10 µM
[13] = second compound 1 µM, first compound 0.0316 µM
[14] = second compound 1 µM, first compound 0.1 µM
[15] = second compound 1 µM, first compound 0.316 µM
[16] = second compound 1 µM, first compound 1 µM
[17] = second compound 1 µM, first compound 3.16 µM
[18] = second compound 1 µM, first compound 10 µM
[19] = second compound 3.16 µM, first compound 0.0316 µM
[20] = second compound 3.16 µM, first compound 0.1 µM
[21] = second compound 3.16 µM, first compound 0.316 µM
[22] = second compound 3.16 µM, first compound 1 µM
[23] = second compound 3.16 µM, first compound 3.16 µM
[24] = second compound 3.16 µM, first compound 10 µM
[25] = second compound 10 µM, first compound 0.0316 µM
[26] = second compound 10 µM, first compound 0.1 µM
[27] = second compound 10 µM, first compound 0.316 µM
[28] = second compound 10 µM, first compound 1 µM
[29] = second compound 10 µM, first compound 3.16 µM
[30] = second compound 10 µM, first compound 10 µM
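Also: drug exposure lasted seven days after spheroids formed for three days.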
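For viability, T/C in this document: 100% = DMSO vehicle control viability.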

Row | SMILES | pIC50 (second compound 0.1 µM) | pIC50 (second compound 0.316 µM) | pIC50 (second compound 1 µM) | pIC50 (second compound 3.16 µM) | viability, T/C [1] [%] | viability, T/C [2] [%] | viability, T/C [3] [%] | viability, T/C [4] [%] | viability, T/C [5] [%] | viability, T/C [6] [%] | viability, T/C [7] [%] | viability, T/C [8] [%] | viability, T/C [9] [%] | viability, T/C [10] [%] | viability, T/C [11] [%] | viability, T/C [12] [%] | viability, T/C [13] [%] | viability, T/C [14] [%] | viability, T/C [15] [%] | viability, T/C [16] [%] | also measured
1 | CC1OCC2(CCN(c3cnc(Sc4ccnc(N)c4Cl)c(N)n3)CC2)C1N (stereo not given) + C=CC(=O)N1CCN(c2nc(OCC3CCCN3C)nc3c2CCN(c2cccc4cccc(C)c24)C3)CC1CC#N | > 7.50 | > 7.50 | > 7.50 | > 7.50 | 24.7 | 14.6 | 13.5 | 7.14 | 3.83 | 4.19 | 26.3 | 17.8 | 12.3 | 10 | 5.4 | 3.32 | 20.1 | 15.6 | 11.5 | 7.73 | pIC50 (second compound 0.0316 µM): > 7.50; viability, T/C (second compound 0.0316 µM, first compound 0.0316 µM): 28.3%; viability, T/C (second compound 0.0316 µM, first compound 0.1 µM): 18.1%; viability, T/C (second compound 0.0316 µM, first compound 0.316 µM): 16.3%; viability, T/C (second compound 0.0316 µM, first compound 1 µM): 11.3%; viability, T/C (second compound 0.0316 µM, first compound 3.16 µM): 5.27%; viability, T/C (second compound 0.0316 µM, first compound 10 µM): 4.04%; viability, T/C [17]: 5.45%; viability, T/C [18]: 6.7%; viability, T/C [19]: 29.1%; viability, T/C [20]: 21.1%; viability, T/C [21]: 17.2%; viability, T/C [22]: 8.14%; viability, T/C [23]: 5.63%; viability, T/C [24]: 4.39%
2 | CC1OCC2(CCN(c3cnc(Sc4ccnc(N)c4Cl)c(N)n3)CC2)C1N (stereo not given) + CNCc1ccccc1-c1csc(C(C)Nc2nc(C)nc3cc(OC)c(OC)cc23)c1 | 7.17 | 7.27 | 7.12 | 6.66 | 60.4 | 44.5 | 33.3 | 28.6 | 23.6 | 17.7 | 57.1 | 41.6 | 30 | 23.3 | 22.1 | 14.6 | 61.5 | 43.4 | 38.4 | 24.8 | pIC50 (second compound 10 µM): > 7.50; viability, T/C [17]: 18.1%; viability, T/C [18]: 13.5%; viability, T/C [19]: 79.2%; viability, T/C [20]: 65.7%; viability, T/C [21]: 43.8%; viability, T/C [22]: 13.4%; viability, T/C [23]: 3.22%; viability, T/C [24]: 3.6%; viability, T/C [25]: 0.2%; viability, T/C [26]: 0.17%; viability, T/C [27]: 0.16%; viability, T/C [28]: 0.14%; viability, T/C [29]: 0.13%; viability, T/C [30]: 0.2%
3 | COc1cc(Nc2ncc3c(n2)-c2ccc(Cl)cc2C(c2c(F)cccc2OC)=NC3)ccc1C(=O)O + CNCc1ccccc1-c1csc(C(C)Nc2nc(C)nc3cc(OC)c(OC)cc23)c1 | 5.52 | 6.46 | 6.58 | > 7.50 | 72 | 62 | 58.1 | 60.6 | 51.4 | 37.8 | 56.3 | 54.3 | 48.2 | 45.6 | 42.4 | 32 | 52.4 | 53.4 | 47 | 48.2 | pIC50 (second compound 10 µM): > 7.50; viability, T/C [17]: 37.8%; viability, T/C [18]: 29%; viability, T/C [19]: 12.8%; viability, T/C [20]: 16.8%; viability, T/C [21]: 14%; viability, T/C [22]: 3.3%; viability, T/C [23]: 0.97%; viability, T/C [24]: 1.05%; viability, T/C [25]: 0.9%; viability, T/C [26]: 0.24%; viability, T/C [27]: 0.13%; viability, T/C [28]: 0.43%; viability, T/C [29]: 0.12%; viability, T/C [30]: 1.01%
4 | O=C(c1cc(Cc2n[nH]c(=O)c3ccccc23)ccc1F)N1CCN(C(=O)C2CC2)CC1 + C=CC(=O)N1CCN(c2nc(=O)n(-c3c(C)ccnc3C(C)C)c3nc(-c4c(O)cccc4F)c(F)cc23)C(C)C1 | > 7.50 | > 7.50 | > 7.50 | > 7.50 | 24.8 | 21.5 | 23.1 | 26.7 | 29.2 | 33.6 | 23.1 | 22.8 | 25.1 | 21.5 | 26.9 | 30.4 | 25.8 | 25.6 | 25.2 | 23.6 | pIC50 (second compound 10 µM): > 7.50; viability, T/C [17]: 25.4%; viability, T/C [18]: 30.4%; viability, T/C [19]: 25.1%; viability, T/C [20]: 27.8%; viability, T/C [21]: 25.7%; viability, T/C [22]: 23.8%; viability, T/C [23]: 23.9%; viability, T/C [24]: 31.8%; viability, T/C [25]: 32.1%; viability, T/C [26]: 32.1%; viability, T/C [27]: 31.9%; viability, T/C [28]: 30%; viability, T/C [29]: 30.4%; viability, T/C [30]: 28.3%
